The values that follow come from patent US7354948B2, “Methods for treatment of chronic uveitis using cyclopropyl-n-{2-[(1S)-1-(3-ethoxy-4-methoxyphenyl)-2-(methylsulfonyl)ethyl]-3-oxoisoindoline-4-yl}carboxamide” (Celgene Corporation, priority 2002, dated 2008).

For series [1], the system named is TNF-α production following LPS-stimulation of human PBMC and human whole blood. The series is described as follows: Modulation of cytokine production, in vitro studies. The series is classed as cell-based. To be noted: compared with thalidomide. The text has this: In a specific embodiment, the pharmacological properties of 3-(3,4-dimethoxy-phenyl)-3-(1-oxo-1,3-dihydro-isoindol-2-yl)-propionamide are characterized in in vitro studies. Studies examine the effects of the compound on the production of various cytokines. Inhibition of TNF-α production following LPS-stimulation of human PBMC and human whole blood by the compound is investigated in vitro. […] The pharmacological effects of 3-(3,4-dimethoxy-phenyl)-3-(1-oxo-1,3-dihydro-isoindol-2-yl)-propionamide may derive from its action as an inhibitor of the generation of inflammatory cytokines.

The test system of the next series is anesthetized dogs. The series is described as follows: Toxicology study: cardiovascular and respiratory function in anesthetized dogs. The series is classed as in vivo, Beagle dogs. The protocol:
The effects of 3-(3,4-dimethoxy-phenyl)-3-(1-oxo-1,3-dihydro-isoindol-2-yl)-propionamide on cardiovascular and respiratory function are investigated in anesthetized dogs. Two groups of Beagle dogs (2/sex/group) are used. One group receives three doses of vehicle only and the other receives three ascending doses of the compound (200, 400, and 800 mg/kg). In all cases, doses of the compound or vehicle are successively administered via infusion through the jugular vein separated by intervals of at least 30 minutes.

Regarding `COc1ccc(C(CC(N)=O)N2Cc3ccccc3C2=O)cc1OC` (stereo not shown) [3-(3,4-dimethoxy-phenyl)-3-(1-oxo-1,3-dihydro-isoindol-2-yl)-propionamide], in series [1], the “pharmacological activity profile, potency relative to thalidomide” value is “five to fifty times more potent than thalidomide”. Moreover, the “cardiovascular and respiratory changes” value in the series on anesthetized dogs (all doses (200, 400, and 800 mg/kg), infusion through the jugular vein, compared to vehicle control group) is on record as “minimal”. The arterial blood pressure entry in the series with anesthetized dogs (following the low dose, only statistically significant difference between vehicle and treatment groups) is given as “small increase”. Moreover, the “arterial blood pressure effect” value in the series with anesthetized dogs (higher doses) was “not seen”.
